# Experimental data reported in patent publication US7317028B2, “Cell differentiation inducer” (Schering Aktiengesellschaft, priority 1996, dated 2008).
# Where a name gives a salt, the structure may show the parent alone.
# Legend:
# A2780 cells = experiment: Test for induction of differentiation in A2780 cells (ALP activity, ALPmin); assay type: cell-based, human; conditions: A2780 cells, 3 days incubation, minimum concentration of the drug inducing increase of ALP activity
# Method: Increase of alkaline phosphatase (ALP) activity is known as an indicator for differentiation of human colon cancer cells. […] Thus, differentiation inducing action was evaluated using ALP activity as an indicator.
# To each well of a 96-well plate was placed 0.1 mL of A2780 cells (15,000 cells/well) and the next day was added 0.1 mL of a sequential dilute of test solution with the medium. […] The reaction was quenched with 0.05 mL/well of 3N sodium hydroxide aq. For each well, an absorbance at 405 nm was measured to determine the minimum concentration of the drug inducing increase of ALP activity (ALPmin).
SMILES,"minimal effective concentration (A2780 cells; Homo sapiens, 72 h)",melting point,minimal effective concentration (A2780 cells)
"Nc1ccccc1NC(=O)c1ccc(COC(=O)NCc2cccnc2)cc1 [Example 98, N-(2-aminophenyl)-4-[(pyridin-3-yl)methylaminocarbonyloxymethyl]benzamide]",0.1 µM,139 to 141 °C,
"Cc1cc(C(=O)NCc2ccc(C(=O)Nc3ccccc3N)cc2)sn1 [Example 26, N-(2-aminophenyl)-4-[N-(3-methylisothiazol-5-yl)carbonylaminomethyl]benzamide]",1 µM,168 to 169 °C,
"Cl.Cl.Nc1ccccc1NC(=O)c1ccc(NC(=O)Cc2cccnc2)cc1 [Example 111, N-(2-aminophenyl)-4-[(pyridin-3-yl)acetylamino]benzamide dihydrochloride]",3 µM,182 to 189 °C (dec.),
"Nc1ccccc1NC(=O)c1ccc(CNC(=O)Oc2ccccc2)cc1 [Example 68, N-(2-aminophenyl)-4-[N-(phenoxycarbonyl)aminomethyl]benzamide]",3 µM,174 to 175 °C,
"Nc1ccccc1NC(=O)c1ccc(NC(=O)COCc2ccccn2)cc1 [Example 126, N-(2-aminophenyl)-4-[N-(pyridin-2-yl)methoxyacetylamino]benzamide]",3 µM,171 to 173 °C,
"Nc1ccccc1NC(=O)c1ccc(NC(=O)COCc2ccsc2)cc1 [Example 124, N-(2-aminophenyl)-4-[N-(thiophen-3-yl)methoxyacetylamino]benzamide]",3 µM,186 to 189 °C,
"Cc1ccc(COC(=O)NCc2ccc(C(=O)Nc3ccccc3N)cc2)cn1 [Example 57, N-(2-aminophenyl)-4-[N-(6-methylpyridin-3-yl)methoxycarbonylaminomethyl]benzamide]",3 µM,164 to 165 °C,
"Nc1ccccc1NC(=O)c1ccc(CNC(=O)OCCCc2cccnc2)cc1 [Example 55, N-(2-aminophenyl)-4-[N-[3-(pyridin-3-yl)propyloxycarbonyl]aminomethyl]benzamide]",1 µM,121 to 124 °C,
"Nc1cccc(COC(=O)NCc2ccc(C(=O)Nc3ccccc3N)cc2)c1 [Example 73, N-(2-aminophenyl)-4-[N-(3-aminophenyl)methoxycarbonylaminomethyl]benzamide]",3 µM,149 to 153 °C (dec.),
"Cc1cc(C(=O)Nc2ccccc2N)ccc1NC(=O)COCc1cccnc1 [Example 123, N-(2-aminophenyl)-4-[N-(pyridin-3-yl)methoxyacetylamino]-3-methylbenzamide]",3 µM,178 to 181 °C (dec.),
"Nc1ccccc1NC(=O)c1ccc(CNc2c(NCc3cccnc3)c(=O)c2=O)cc1 [Example 144, N-(2-aminophenyl)-4-[N-[3-[(pyridin-3-yl)methylamino]cyclobuten-1,2-dion-4-yl]aminomethyl]benzamide]",,230 °C,
"CC(Oc1cccnc1)C(=O)NCc1ccc(C(=O)Nc2ccccc2N)cc1 (stereo not shown) [Example 47, N-(2-aminophenyl)-4-[N-[2-(pyridin-3-yl)oxy]propionylaminomethyl]benzamide]",,171 to 173 °C (dec.),
"Nc1ccccc1NC(=O)c1ccc(CNC(=O)c2ccco2)cc1 [Example 22, N-(2-aminophenyl)-4-[N-(furan-2-yl)carbonylaminomethyl]benzamide]",,197 °C (dec.),
"Nc1ccccc1NC(=O)c1ccc(CNC(=O)c2ccccn2)cc1 [Example 12, N-(2-aminophenyl)-4-(N-picolinoylaminomethyl)benzamide]",,173 to 178 °C (dec.),
"Nc1ccccc1NC(=O)c1ccc(CNC(=O)c2ccncc2)cc1 [Example 19, N-(2-aminophenyl)-4-(N-isonicotinoylaminomethyl)benzamide]",,234 to 237 °C (dec.),
Nc1ccccc1NC(=O)c1ccc(CNC(=O)Oc2cccnc2)cc1,,209 °C (dec.),
"Nc1ccccc1NC(=O)c1ccc(CNC(=O)c2cccs2)cc1 [Example 21, N-(2-aminophenyl)-4-[N-(thiophen-2-yl)carbonylaminomethyl]benzamide]",,202 to 205 °C (dec.),
"Nc1ccccc1NC(=O)c1ccc(CNC(=O)c2cccnc2)cc1 [Example 14, N-(2-aminophenyl)-4-(N-nicotinoylaminomethyl)benzamide]",,193 to 196 °C,
"Nc1ccccc1NC(=O)c1ccc(NC(=O)CCCc2cccnc2)cc1 [Example 118, N-(2-aminophenyl)-4-[[4-(pyridin-3-yl)butanoyl]amino]benzamide]",,165 to 167 °C (dec.),
"Nc1ccccc1NC(=O)Cc1cc2cc(NC(=O)OCc3cccnc3)ccc2o1 [Example 87, N-(2-aminophenyl)-5-[(pyridin-3-yl)methoxycarbonyl]aminobenzofuran-2-carboxyamide]",,173 to 174 °C,
"Nc1ccccc1NC(=O)c1ccc(CNC(=O)OCC2=CN(c3ccccc3)CO2)cc1 [Example 62, N-(2-aminophenyl)-4-[N-(3-phenyloxazol-5-yl)methoxycarbonylaminomethyl]benzamide]",,192 to 195 °C,
"Nc1nc(CC(=O)NCc2ccc(C(=O)Nc3ccccc3N)cc2)cs1 [Example 36, N-(2-aminophenyl)-4-[N-(2-aminothiazol-4-yl)acetylaminomethyl]benzamide]",10 µM,,
"Nc1cccc(NC(=S)NCc2ccc(C(=O)Nc3ccccc3N)cc2)c1 [Example 92, N-(2-aminophenyl)-4-[N′-(3-aminophenyl)thioureidomethyl]benzamide]",,,3 µM
"Cc1ccc(O)c(NC(=O)c2ccc(CNC(=O)OCc3cccnc3)cc2)c1 [Example 84, N-(2-hydroxy-5-methylphenyl)-4-[N-(pyridin-3-yl)methoxycarbonylaminomethyl]benzamide]",,155 to 155.5 °C,
"Nc1ccccc1NC(=O)c1ccc(NC(=O)Cc2ccccn2)cc1 [Example 110, N-(2-aminophenyl)-4-[(pyridin-2-yl)acetylamino]benzamide dihydrochloride]",3 µM,,
"Nc1ccccc1NC(=O)c1ccc(CNC(=O)c2cnccn2)cc1 [Example 20, N-(2-aminophenyl)-4-[N-(pyrazin-2-yl)carbonylaminomethyl]benzamide]",,207 °C (dec.),
"Nc1ccccc1NC(=O)c1ccc(CNC(=O)OC2CN3CCC2CC3)cc1 (stereo not shown) [Example 72, N-(2-aminophenyl)-4-[N-(quinuclidin-3-yl)oxycarbonylaminomethyl]benzamide]",,,10 µM
"CC(=O)N(CCc1ccc(C(=O)Nc2ccccc2N)cc1)c1cccnc1 [Example 96, N-(2-aminophenyl)-4-[2-[N-(pyridin-3-yl)-acetylamino]ethyl]benzamide]",10 µM,,
"Nc1ccccc1NC(=O)c1ccc(CNC(=O)OCC2CCOC2)cc1 (stereo not shown) [Example 67, N-(2-aminophenyl)-4-[N-(tetrahydrofuran-3-yl)methoxycarbonylaminomethyl]benzamide]",3 µM,,
"COC(=O)c1ccc(C(=O)NCc2ccc(C(=O)Nc3ccccc3N)cc2)cc1 [Example 11, N-(2-aminophenyl)-4-[N-(4-methoxycarboxybenzoyl)aminomethyl]benzamide]",,,1 µM
